Measurements taken from US20020137929A1, “1 - (3-heterocyclylphenyl) isothiourea, -isourea, -guanidine and -amidine herbicidal agents” (Intellectual Property Department, BASF Aktiengesellschaft, priority 1998, published 2002).

Experiments:
AMBEL (Ragweed, Common) = test: Postemergence herbicidal evaluation; format: in vivo, Ambrosia artemisifolia; conditions: postemergence
Procedure, shortened: (§1)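 Visual 0–9 rating versus control (stand, vigor, malformation, size, chlorosis, overall appearance), taken four to five weeks post-spray. Two-week-old seedlings received roughly 0.0156–0.500 kg/ha active in acetone/water (50/50) with 0.5% TWEEN 20 via nozzle at 40 psi.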

CASOB (Sicklepod) [1] = test: Postemergence herbicidal evaluation; format: in vivo, Cassia obtusifolia; conditions: postemergence
Procedure, shortened: as §1

[2] = system: CHEAL (Lambsquarters, Common); test: Postemergence herbicidal evaluation; format: in vivo, Chenopodium album; conditions: postemergence
Procedure, shortened: as §1

GALAP (Galium) [3] = test: Postemergence herbicidal evaluation; format: in vivo, Galium aparine; conditions: postemergence
Procedure, shortened: as §1

ECHCG (Barnyardgrass) = test: Postemergence herbicidal evaluation; format: in vivo, Echinochloa crus-galli; conditions: postemergence
Procedure, shortened: as §1

SETVI (Foxtail, Green) = test: Postemergence herbicidal evaluation; format: in vivo, Setaria viridis; conditions: postemergence
Procedure, shortened: as §1

[4] = system: GLXMAW (Soybean, Williams); test: Postemergence herbicidal evaluation; format: in vivo, Glycine max, (L.) Merr. cv Williams; conditions: postemergence
Procedure, shortened: as §1

ORYSAT (Rice, Tebonnet) = test: Postemergence herbicidal evaluation; format: in vivo, Oryza sativa, (L.) Tebonnet; conditions: postemergence
Procedure, shortened: as §1

CASOB (Sicklepod) [5] = test: Preemergence herbicidal evaluation; format: in vivo, Cassia obtusifolia; conditions: rated 4-5 weeks after treatment
Procedure, shortened: (§2)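 Steps: mix seeds into potting soil; plant atop ~1 inch soil; spray compound in aqueous acetone (~0.0156-0.500 kg/ha equivalent); maintain in greenhouse with watering; rate visually 0-9 versus control at 4-5 weeks.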

GALAP (Galium) [6] = test: Preemergence herbicidal evaluation; format: in vivo, Galium aparine; conditions: rated 4-5 weeks after treatment
Procedure, shortened: as §2

ZEAMX (Corn, Field) = test: Preemergence herbicidal evaluation; format: in vivo, Zea mays; conditions: rated 4-5 weeks after treatment
Procedure, shortened: as §2

CYPIR (Rice Flatsedge) = test: Preemergence weed control under flooded paddy conditions; format: in vivo, Cyperus iria; conditions: rated 3-4 weeks after treatment
Procedure, shortened: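 Ratings on a 0-9 visual scale cover stand, vigor, malformation, size, chlorosis and overall appearance relative to a control, taken three to four weeks post-treatment. Application was into flood water over freshly sown silt loam at roughly 0.0313 to 0.500 kg/ha.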

CYPSE (Flatsedge) = test: as above; format: in vivo, Cyperus serotinus; conditions: rated 3-4 weeks after treatment
Procedure, shortened: (§3)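 Visual injury scored 0-9 against control three to four weeks post-treatment, greenhouse-grown. Application: acetone/water (50/50) solutions dosed directly into flood water (1.5-3 cm over silt loam, planted top 0.5 cm), roughly 0.0313 to 0.500 kg/ha active ingredient.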

[7] = system: SAGPY (Arrowhead (Pygmaea)); test: as above; format: in vivo, Sagittaria pygmaea; conditions: rated 3-4 weeks after treatment
Procedure, shortened: as §3

## CC(C)COC(=O)CN1C(=O)CSC1=Nc1cc(-n2c(=O)cc(C(F)(F)F)n(C)c2=O)c(F)cc1Cl [Compound 121, Isobutyl 2-{{2-chloro-5-[3,6-dihydro-3-methyl-2,6-dioxo-4-(trifluoromethyl)-1(2H)-pyrimidinyl]-4-fluorophenyl}imino}-4-oxo-3-thiazolidineacetate]
AMBEL (Ragweed, Common); rate 0.0156 kg/ha
  Herbicidal rating AMBEL: 9.0
AMBEL (Ragweed, Common); rate 0.0313 kg/ha
  Herbicidal rating AMBEL: 9.0
AMBEL (Ragweed, Common); rate 0.0625 kg/ha
  Herbicidal rating AMBEL: 9.0
CASOB (Sicklepod) [1]; rate 0.0156 kg/ha
  Herbicidal rating CASOB: 0.0
CASOB (Sicklepod) [1]; rate 0.0313 kg/ha
  Herbicidal rating CASOB: 1.0
CASOB (Sicklepod) [1]; rate 0.0625 kg/ha
  Herbicidal rating CASOB: 7.0
[2]; rate 0.0156 kg/ha
  Herbicidal rating CHEAL: 4.0
[2]; rate 0.0313 kg/ha
  Herbicidal rating CHEAL: 7.0
[2]; rate 0.0625 kg/ha
  Herbicidal rating CHEAL: 9.0
GALAP (Galium) [3]; rate 0.0156 kg/ha
  Herbicidal rating GALAP: 0.0
GALAP (Galium) [3]; rate 0.0313 kg/ha
  Herbicidal rating GALAP: 0.0
GALAP (Galium) [3]; rate 0.0625 kg/ha
  Herbicidal rating GALAP: 3.0
ECHCG (Barnyardgrass); rate 0.0156 kg/ha
  Herbicidal rating ECHCG: 0.0
ECHCG (Barnyardgrass); rate 0.0313 kg/ha
  Herbicidal rating ECHCG: 0.0
ECHCG (Barnyardgrass); rate 0.0625 kg/ha
  Herbicidal rating ECHCG: 0.0
SETVI (Foxtail, Green); rate 0.0156 kg/ha
  Herbicidal rating SETVI: 8.0
SETVI (Foxtail, Green); rate 0.0313 kg/ha
  Herbicidal rating SETVI: 8.0
SETVI (Foxtail, Green); rate 0.0625 kg/ha
  Herbicidal rating SETVI: 9.0
[4]; rate 0.0156 kg/ha
  Herbicidal rating GLXMAW: 6.0
[4]; rate 0.0313 kg/ha
  Herbicidal rating GLXMAW: 8.0
[4]; rate 0.0625 kg/ha
  Herbicidal rating GLXMAW: 8.0
ORYSAT (Rice, Tebonnet); rate 0.0156 kg/ha
  Herbicidal rating ORYSAT: 2.0
ORYSAT (Rice, Tebonnet); rate 0.0313 kg/ha
  Herbicidal rating ORYSAT: 2.5
ORYSAT (Rice, Tebonnet); rate 0.0625 kg/ha
  Herbicidal rating ORYSAT: 3.0
CASOB (Sicklepod) [5]; rate 0.0156 kg/ha
  Preemergence herbicidal rating CASOB: 0.0
CASOB (Sicklepod) [5]; rate 0.0313 kg/ha
  Preemergence herbicidal rating CASOB: 0.0
CASOB (Sicklepod) [5]; rate 0.0625 kg/ha
  Preemergence herbicidal rating CASOB: 0.0
CASOB (Sicklepod) [5]; rate 0.1250 kg/ha
  Preemergence herbicidal rating CASOB: 9.0
CASOB (Sicklepod) [5]; rate 0.2500 kg/ha
  Preemergence herbicidal rating CASOB: 9.0
GALAP (Galium) [6]; rate 0.0156 kg/ha
  Preemergence herbicidal rating GALAP: 0.0
GALAP (Galium) [6]; rate 0.0313 kg/ha
  Preemergence herbicidal rating GALAP: 0.0
GALAP (Galium) [6]; rate 0.0625 kg/ha
  Preemergence herbicidal rating GALAP: 0.0
GALAP (Galium) [6]; rate 0.1250 kg/ha
  Preemergence herbicidal rating GALAP: 5.0
GALAP (Galium) [6]; rate 0.2500 kg/ha
  Preemergence herbicidal rating GALAP: 9.0
ZEAMX (Corn, Field); rate 0.0156 kg/ha
  Preemergence herbicidal rating ZEAMX: 0.0
ZEAMX (Corn, Field); rate 0.0313 kg/ha
  Preemergence herbicidal rating ZEAMX: 4.0
ZEAMX (Corn, Field); rate 0.0625 kg/ha
  Preemergence herbicidal rating ZEAMX: 6.0
ZEAMX (Corn, Field); rate 0.1250 kg/ha
  Preemergence herbicidal rating ZEAMX: 7.0
ZEAMX (Corn, Field); rate 0.2500 kg/ha
  Preemergence herbicidal rating ZEAMX: 8.0
CYPIR (Rice Flatsedge); 0.0313 kg/ha
  herbicidal effect rating, CYPIR: 4.0
CYPIR (Rice Flatsedge); 0.0625 kg/ha
  herbicidal effect rating, CYPIR: 4.0
CYPIR (Rice Flatsedge); 0.1250 kg/ha
  herbicidal effect rating, CYPIR: 8.0
CYPIR (Rice Flatsedge); 0.2500 kg/ha
  herbicidal effect rating, CYPIR: 8.0
CYPSE (Flatsedge); 0.0313 kg/ha
  herbicidal effect rating, CYPSE: 2.0
CYPSE (Flatsedge); 0.1250 kg/ha
  herbicidal effect rating, CYPSE: 5.0
CYPSE (Flatsedge); 0.2500 kg/ha
  herbicidal effect rating, CYPSE: 5.0
[7]; 0.0313 kg/ha
  herbicidal effect rating, SAGPY: 0.0
[7]; 0.0625 kg/ha
  herbicidal effect rating, SAGPY: 4.0
[7]; 0.1250 kg/ha
  herbicidal effect rating, SAGPY: 4.0
[7]; 0.2500 kg/ha
  herbicidal effect rating, SAGPY: 6.0
